Data reported in patent US12350270B2, “Antimalarial agents” (Merck Sharp & Dohme LLC, priority 2019, dated 2025).

tested on: parasites (ring stage, in human red blood cell culture); assay: Parasite LDH growth assay (antiparasite potency, Parasite Assay); format: cell-based, Plasmodium falciparum; conditions: Plasmodium falciparum, Erythrocyte, 72 h, 0.7% rings, 2% haematocrit, 72 hours at 37° C., LDH readout of parasite growth
Procedure, shortened: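 Growth was read by an LDH assay after a freeze–thaw cycle (−80 °C overnight, 4 h thaw at RT). Before that, parasites grew with compound for 72 h at 37 °C under gassed, humidified conditions. The input was a ring-stage culture adjusted to 0.7% parasitemia and 2% haematocrit in serum (5%)/albumax (0.5%)-supplemented RPMI-Hepes.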

`CCC1(CC)CC(=O)N(C2CCCc3ccc(C(=O)N[C@@H]4c5ccccc5OC[C@@]4(C)O)cc32)C(=N)N1` (stereo partly drawn) [Example 161, 8-(4,4-diethyl-2-imino-6-oxotetrahydropyrimidin-1(2H)-yl)-N-((3S,4R)-3-hydroxy-3-methylchroman-4-yl)-5,6,7,8-tetrahydronaphthalene-2-carboxamide] was tested. Which EC50 did it give?
Its EC50 is 0.8 nM.

For `CC1(C)CC(=O)N([C@H]2c3cc(C(=O)N[C@@H]4c5ccccc5OC(C)(C)[C@H]4O)ccc3CC2(C)C)C(=N)N1` [Example 162, (3R)-N-[(3S,4R)-3-hydroxy-2,2-dimethyl-chroman-4-yl]-3-(2-imino-4,4-dimethyl-6-oxo-hexahydropyrimidin-1-yl)-2,2-dimethyl-indane-5-carboxamide], which EC50 is on record?
The EC50 was 7.5 nM.

With `CCC1(CC)CC(=O)N([C@H]2c3cc(C(=O)N[C@@H]4c5ccccc5C[C@@]4(C)O)ccc3OC2(C)C)C(=N)N1` [Example 163, (3S)-3-(4,4-diethyl-2-imino-6-oxo-hexahydropyrimidin-1-yl)-N-[(1R,2R)-2-hydroxy-2-methyl-indan-1-yl]-2,2-dimethyl-3H-benzofuran-5-carboxamide] as the molecule, how does the EC50 read?
The EC50 was 8.4 nM.

How did the EC50 turn out when `CCC1(CC)CC(=O)N([C@@H]2C[C@@H](C)Oc3ccc(C(=O)N[C@@H]4c5ccccc5C[C@@]4(C)O)cc32)C(=N)N1` [Example 164, (2R,4R)-4-(4,4-diethyl-2-imino-6-oxo-hexahydropyrimidin-1-yl)-N-[(1R,2R)-2-hydroxy-2-methyl-indan-1-yl]-2-methyl-chromane-6-carboxamide] was run?
The EC50 was 2.4 nM.

For `CCC1(CC)CC(=O)N([C@H]2c3cc(C(=O)N[C@@H]4c5ccccc5C[C@H]4O)ccc3CC[C@@H]2OC)C(=N)N1` [Example 165, (3S,4S)-4-(4,4-diethyl-2-imino-6-oxo-hexahydropyrimidin-1-yl)-N-[(1R,2R)-2-hydroxyindan-1-yl]-3-methoxy-tetralin-6-carboxamide], which EC50 is on record?
Its EC50 is 3.4 nM.

`CC[C@]1(C)CC(=O)N([C@@H]2c3cc(C(=O)N[C@@H]4c5ccccc5OC(C)(C)[C@H]4O)ccc3C[C@@H]2C)C(=N)N1` [Example 166, (2S,3S)-3-[(4R)-4-ethyl-2-imino-4-methyl-6-oxo-hexahydropyrimidin-1-yl]-N-[(3S,4R)-3-hydroxy-2,2-dimethyl-chroman-4-yl]-2-methyl-indane-5-carboxamide] was tested. Which EC50 did it give?
Its EC50 is 154 nM.

Which EC50 does the source give for `CC[C@]1(C)CC(=O)N([C@@H]2c3cc(C(=O)N[C@@H]4c5ccccc5OC(C)(C)[C@H]4O)ccc3C[C@H]2C)C(=N)N1` [Example 167, (2R,3S)-3-[(4R)-4-ethyl-2-imino-4-methyl-6-oxo-hexahydropyrimidin-1-yl]-N-[(3S,4R)-3-hydroxy-2,2-dimethyl-chroman-4-yl]-2-methyl-indane-5-carboxamide] here?
Its EC50 is 250 nM.

For `CC[C@]1(C)CC(=O)N([C@H]2c3cc(C(=O)N[C@@H]4c5ccccc5OC(C)(C)[C@H]4O)ccc3C[C@H]2C)C(=N)N1` [Example 168, (2R,3R)-3-[(4R)-4-ethyl-2-imino-4-methyl-6-oxo-hexahydropyrimidin-1-yl]-N-[(3S,4R)-3-hydroxy-2,2-dimethyl-chroman-4-yl]-2-methyl-indane-5-carboxamide], which EC50 is on record?
The EC50 was 0.4 nM.

How did the EC50 turn out when `CC[C@]1(C)CC(=O)N([C@H]2c3cc(C(=O)N[C@@H]4c5ccccc5OC(C)(C)[C@H]4O)ccc3C[C@@H]2C)C(=N)N1` [Example 169, (2S,3R)-3-[(4R)-4-ethyl-2-imino-4-methyl-6-oxo-hexahydropyrimidin-1-yl]-N-[(3S,4R)-3-hydroxy-2,2-dimethyl-chroman-4-yl]-2-methyl-indane-5-carboxamide] was run?
The EC50 was 0.3 nM.

Which EC50 does the source give for `CC[C@]1(C)CC(=O)N([C@H]2C[C@H](C)c3ccc(C(=O)N[C@@H]4c5ccccc5OC(C)(C)[C@H]4O)cc32)C(=N)N1` [Example 170, (1S,3S)-3-[(4R)-4-ethyl-2-imino-4-methyl-6-oxo-hexahydropyrimidin-1-yl]-N-[(3S,4R)-3-hydroxy-2,2-dimethyl-chroman-4-yl]-1-methyl-indane-5-carboxamide] here?
Its EC50 is 184 nM.

How did the EC50 turn out when `CC[C@]1(C)CC(=O)N([C@@H]2C[C@@H](C)c3ccc(C(=O)N[C@@H]4c5ccccc5OC(C)(C)[C@H]4O)cc32)C(=N)N1` [Example 171, (1R,3R)-3-[(4R)-4-ethyl-2-imino-4-methyl-6-oxo-hexahydropyrimidin-1-yl]-N-[(3S,4R)-3-hydroxy-2,2-dimethyl-chroman-4-yl]-1-methyl-indane-5-carboxamide] was run?
Its EC50 is 0.7 nM.

With `CC1(C)CC(=O)N([C@@H]2CCOc3ccc(C(=O)N[C@@H]4c5ccccc5OC(C)(C)[C@@]4(C)O)cc32)C(=N)N1` [Example 172, (4R)-N-[(3S,4R)-3-hydroxy-2,2,3-trimethyl-chroman-4-yl]-4-(2-imino-4,4-dimethyl-6-oxo-hexahydropyrimidin-1-yl)chromane-6-carboxamide] as the molecule, how does the EC50 read?
The EC50 was 0.9 nM.

`CCC1(CC)CC(=O)N([C@@H]2CCOc3ccc(C(=O)N[C@@H]4c5ccccc5OC[C@H]4OC)cc32)C(=N)N1` [Example 173, (4R)-4-(4,4-diethyl-2-imino-6-oxo-hexahydropyrimidin-1-yl)-N-[(3S,4R)-3-methoxychroman-4-yl]chromane-6-carboxamide] was tested. Which EC50 did it give?
Its EC50 is 2.8 nM.

`CC[C@]1(C)CC(=O)N([C@H]2c3cc(C(=O)N[C@@H]4c5ccccc5C[C@H]4O)ccc3OC[C@@H]2COC)C(=N)N1` [Example 174, (3S,4R)-4-[(4R)-4-ethyl-2-imino-4-methyl-6-oxo-hexahydropyrimidin-1-yl]-N-[(1R,2R)-2-hydroxyindan-1-yl]-3-(methoxymethyl)chromane-6-carboxamide] was tested. Which EC50 did it give?
The EC50 was 1.9 nM.

Which EC50 does the source give for `COCC1(C)CC(N2C(=N)NC(C)(C)CC2=O)c2cc(C(=O)N[C@@H]3c4ccccc4C[C@H]3O)ccc2O1` (stereo partly drawn) [Example 175, N-[(1R,2R)-2-hydroxyindan-1-yl]-4-(2-imino-4,4-dimethyl-6-oxo-hexahydropyrimidin-1-yl)-2-(methoxymethyl)-2-methyl-chromane-6-carboxamide] here?
Its EC50 is 31 nM.

Which EC50 does the source give for `CC[C@@]1(C)CC(=O)N(C2c3cc(C(=O)N[C@H]4CC(C)(C)Oc5ccccc54)ccc3OCC2O)C(=N)N1` (stereo partly drawn) [Example 177, N-[(4S)-2,2-dimethylchroman-4-yl]-4-[(4S)-4-ethyl-2-imino-4-methyl-6-oxo-hexahydropyrimidin-1-yl]-3-hydroxy-chromane-6-carboxamide] here?
Its EC50 is 66.9 nM.

How did the EC50 turn out when `CC[C@]1(C)CC(=O)N(C2c3cc(C(=O)N[C@@H]4c5ccccc5C[C@@]4(C)O)ccc3OCC2OC)C(=N)N1` (stereo partly drawn) [Example 179, 4-[(4R)-4-ethyl-2-imino-4-methyl-6-oxo-hexahydropyrimidin-1-yl]-N-[(1R,2R)-2-hydroxy-2-methyl-indan-1-yl]-3-methoxy-chromane-6-carboxamide] was run?
The EC50 was 65.4 nM.

For `CC[C@]1(C)CC(=O)N(C2c3cc(C(=O)N[C@@H]4c5ccccc5C[C@H]4O)ccc3OCC2(C)OC)C(=N)N1` (stereo partly drawn) [Example 180, 4-[(4R)-4-ethyl-2-imino-4-methyl-6-oxo-hexahydropyrimidin-1-yl]-N-[(1R,2R)-2-hydroxyindan-1-yl]-3-methoxy-3-methyl-chromane-6-carboxamide], which EC50 is on record?
Its EC50 is 65.4 nM.

How did the EC50 turn out when `CC1(C)CC(=O)N([C@H]2c3cc(C(=O)N[C@@H]4c5ccccc5OC(C)(C)[C@H]4O)ccc3OC2(C)C)C(=N)N1` [Example 182, (3S)-N-[(3S,4R)-3-hydroxy-2,2-dimethyl-chroman-4-yl]-3-(2-imino-4,4-dimethyl-6-oxo-hexahydropyrimidin-1-yl)-2,2-dimethyl-3H-benzofuran-5-carboxamide] was run?
The EC50 was 6.1 nM.

How did the EC50 turn out when `COCC1(C)Oc2ccc(C(=O)N[C@@H]3c4ccccc4C[C@]3(C)O)cc2C1N1C(=N)NC(C)(C)CC1=O` (stereo partly drawn) [Example 183, N-[(1R,2S)-2-hydroxy-2-methyl-indan-1-yl]-3-(2-imino-4,4-dimethyl-6-oxo-hexahydropyrimidin-1-yl)-2-(methoxymethyl)-2-methyl-3H-benzofuran-5-carboxamide] was run?
The EC50 was 71.4 nM.

How did the EC50 turn out when `CC1(C)CC(=O)N([C@@H]2CCOc3ccc(C(=O)N[C@H]4c5ccccc5OC(C)(C)[C@]4(C)O)cc32)C(=N)N1` [Example 184, (4R)-N-[(3R,4S)-3-hydroxy-2,2,3-trimethyl-chroman-4-yl]-4-(2-imino-4,4-dimethyl-6-oxo-hexahydropyrimidin-1-yl)chromane-6-carboxamide] was run?
The EC50 was 105 nM.

Which EC50 does the source give for `COC1COc2ccc(C(=O)N[C@@H]3c4ccccc4OC[C@]3(C)O)cc2C1N1C(=N)NC(C)(C)CC1=O` (stereo partly drawn) [Example 185, N-[(3R,4R)-3-hydroxy-3-methyl-chroman-4-yl]-4-(2-imino-4,4-dimethyl-6-oxo-hexahydropyrimidin-1-yl)-3-methoxy-chromane-6-carboxamide] here?
The EC50 was 50.3 nM.

For `COC1COc2ccc(C(=O)N[C@@H]3c4ccccc4OC[C@@]3(C)O)cc2C1N1C(=N)NC(C)(C)CC1=O` (stereo partly drawn) [Example 186, N-[(3S,4R)-3-hydroxy-3-methyl-chroman-4-yl]-4-(2-imino-4,4-dimethyl-6-oxo-hexahydropyrimidin-1-yl)-3-methoxy-chromane-6-carboxamide], which EC50 is on record?
Its EC50 is 70 nM.

For `CC1(C)CC(=O)N(C2CCS(=O)(=O)c3ccc(C(=O)N[C@@H]4c5ccccc5C[C@]4(C)O)cc32)C(=N)N1` (stereo partly drawn) [Example 187, N-[(1R,2S)-2-hydroxy-2-methyl-indan-1-yl]-4-(2-imino-4,4-dimethyl-6-oxo-hexahydropyrimidin-1-yl)-1,1-dioxo-3,4-dihydro-2H-thiochromane-6-carboxamide], which EC50 is on record?
Its EC50 is 66.7 nM.

How did the EC50 turn out when `CC1(C)CC(=O)N(C2CCS(=O)(=O)c3ccc(C(=O)N[C@@H]4c5ccccc5C[C@@]4(C)O)cc32)C(=N)N1` (stereo partly drawn) [Example 188, N-[(1R,2R)-2-hydroxy-2-methyl-indan-1-yl]-4-(2-imino-4,4-dimethyl-6-oxo-hexahydropyrimidin-1-yl)-1,1-dioxo-3,4-dihydro-2H-thiochromene-6-carboxamide] was run?
The EC50 was 203 nM.

How did the EC50 turn out when `CC1(C)CC(=O)N([C@@H]2CCOc3ccc(C(=O)N[C@@H]4c5cc(F)ccc5OC(C)(C)[C@H]4O)cc32)C(=N)N1` [Example 189, (4R)-N-[(3S,4R)-6-fluoro-3-hydroxy-2,2-dimethyl-chroman-4-yl]-4-(2-imino-4,4-dimethyl-6-oxo-hexahydropyrimidin-1-yl)chromane-6-carboxamide] was run?
Its EC50 is 1 nM.
